Measurements reported in ChEMBL document CHEMBL1147456, “Binding modes of 6,7 di-substituted 4-anilinoquinoline-3-carbonitriles to EGFR” (Bioorg Med Chem Lett, 2004).

Molecular target: Epidermal growth factor receptor (Homo sapiens, UniProt P00533)
Experiment: Concentration required to inhibit autophosphorylation of cytoplasmic domain of epidermal growth factor receptor (EGFR)

Sequence of Epidermal growth factor receptor (P00533 whole entry, the tested form may be a part): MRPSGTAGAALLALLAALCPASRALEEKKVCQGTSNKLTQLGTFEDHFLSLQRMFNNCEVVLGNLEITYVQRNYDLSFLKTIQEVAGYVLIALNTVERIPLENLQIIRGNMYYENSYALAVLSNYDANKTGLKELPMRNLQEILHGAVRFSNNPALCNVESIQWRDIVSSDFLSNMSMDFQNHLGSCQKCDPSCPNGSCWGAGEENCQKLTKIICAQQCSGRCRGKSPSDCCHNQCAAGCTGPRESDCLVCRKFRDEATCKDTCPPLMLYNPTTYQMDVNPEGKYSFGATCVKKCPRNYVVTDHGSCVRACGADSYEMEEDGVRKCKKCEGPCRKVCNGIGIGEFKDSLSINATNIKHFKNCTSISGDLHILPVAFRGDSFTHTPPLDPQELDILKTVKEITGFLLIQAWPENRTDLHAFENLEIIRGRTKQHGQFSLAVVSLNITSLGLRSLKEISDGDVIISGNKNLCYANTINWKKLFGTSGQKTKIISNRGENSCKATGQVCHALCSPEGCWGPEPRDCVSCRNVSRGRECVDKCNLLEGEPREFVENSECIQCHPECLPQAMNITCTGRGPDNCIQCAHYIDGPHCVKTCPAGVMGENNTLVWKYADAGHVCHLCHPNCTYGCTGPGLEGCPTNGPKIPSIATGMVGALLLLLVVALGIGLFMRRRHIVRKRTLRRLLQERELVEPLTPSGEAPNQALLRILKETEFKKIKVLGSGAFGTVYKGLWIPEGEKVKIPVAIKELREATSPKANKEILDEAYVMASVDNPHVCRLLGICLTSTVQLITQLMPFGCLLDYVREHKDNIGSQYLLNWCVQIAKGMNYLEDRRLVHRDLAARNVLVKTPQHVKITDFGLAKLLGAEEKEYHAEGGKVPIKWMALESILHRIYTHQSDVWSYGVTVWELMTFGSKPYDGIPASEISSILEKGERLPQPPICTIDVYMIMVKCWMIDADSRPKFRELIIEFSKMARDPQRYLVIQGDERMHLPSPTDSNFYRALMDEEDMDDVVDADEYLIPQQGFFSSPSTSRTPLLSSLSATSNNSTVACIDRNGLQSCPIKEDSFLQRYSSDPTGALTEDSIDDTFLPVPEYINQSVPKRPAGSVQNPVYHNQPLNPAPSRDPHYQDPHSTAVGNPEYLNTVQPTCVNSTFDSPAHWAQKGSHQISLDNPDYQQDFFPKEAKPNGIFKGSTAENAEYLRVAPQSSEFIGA

## COC[C@@H]1CCCN1CC#CC(=O)Nc1ccc2ncc(C#N)c(Nc3cccc(Br)c3)c2c1
  IC50: 150 nM
